In PubChem BioAssay (NCI):
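Dose response: 5 concentrations. Exposure: 48 h. Format: 96-well plates. Endpoint: linear interpolation; highest concentration if not reached. GI50: concentration for 50% inhibition of growth. TGI: concentration producing complete growth inhibition.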

Assays:
Experiment in all cases: growth of human tumour cells (NCI), 48 h
[1] = tested on: KM12 colon
[2] = tested on: DU-145 prostate
[3] = tested on: MALME-3M melanoma
[4] = tested on: OVCAR-5 ovarian
[5] = tested on: MDA-MB-435
[6] = tested on: SNB-19 CNS
[7] = tested on: SK-MEL-28 melanoma
[8] = tested on: NCI-H23 lung
[9] = tested on: ACHN renal
[10] = tested on: SF-295 CNS
[11] = tested on: RXF 393 renal
[12] = tested on: A498 renal
[13] = tested on: K-562 leukemia
[14] = tested on: OVCAR-4 ovarian
[15] = tested on: HL-60(TB) leukemia
[16] = tested on: HCT-15 colon
[17] = tested on: M14 melanoma
[18] = tested on: UACC-62 melanoma
[19] = tested on: MOLT-4 leukemia
[20] = tested on: NCI-H226 lung
[21] = tested on: MDA-MB-468 breast
[22] = tested on: OVCAR-8 ovarian
[23] = tested on: RPMI-8226 leukemia
[24] = tested on: LOX IMVI melanoma
[25] = tested on: SK-MEL-5 melanoma
[26] = tested on: HCC-2998 colon
[27] = tested on: PC-3 prostate
[28] = tested on: A549 NSCLC
[29] = tested on: SK-OV-3 ovarian
[30] = tested on: HCT-116 colon
[31] = tested on: CAKI-1 renal
[32] = tested on: COLO 205 colon
[33] = tested on: SF-539 CNS
[34] = tested on: SF-268 CNS
[35] = tested on: MCF7 breast
[36] = tested on: NCI-H460 lung
[37] = tested on: EKVX NSCLC
[38] = tested on: HS 578T breast
[39] = tested on: CCRF-CEM leukemia
[40] = tested on: OVCAR-3 ovarian
[41] = tested on: 786-0 renal
[42] = tested on: IGROV1 ovarian
[43] = tested on: U251 CNS
[44] = tested on: SN12C renal
[45] = tested on: HOP-92 NSCLC
[46] = tested on: HOP-62 NSCLC
[47] = tested on: SR leukemia
[48] = tested on: HT29 colon
[49] = tested on: NCI-H522 lung
[50] = tested on: TK-10 renal
[51] = tested on: T-47D breast
[52] = tested on: BT-549 breast
[53] = tested on: SW-620 colon
[54] = tested on: NCI/ADR-RES ovarian
[55] = tested on: UACC-257 melanoma
[56] = tested on: UO-31 renal
[57] = tested on: MDA-MB-231 breast
[58] = tested on: SK-MEL-2 melanoma

SMILES: O=C(Cc1c(-c2ccccc2[N+](=O)[O-])n(-c2ncnc3c2c(-c2ccccc2)c(-c2ccccc2)n3Cc2ccccc2)[nH]c1=O)c1ccc(Cl)c(Cl)c1
- GI50 [1]: 15.1 µM
- TGI [1]: > 100 µM
- GI50 [2]: 33.9 µM
- TGI [2]: > 100 µM
- GI50 [3]: 12.4 µM
- TGI [3]: 48.9 µM
- GI50 [4]: 16.4 µM
- TGI [4]: 83.8 µM
- GI50 [5]: 19.5 µM
- TGI [5]: 62.2 µM
- GI50 [6]: 15.9 µM
- TGI [6]: > 100 µM
- GI50 [7]: 17.9 µM
- TGI [7]: > 100 µM
- GI50 [8]: 13.3 µM
- TGI [8]: 72.5 µM
- GI50 [9]: 15.2 µM
- TGI [9]: > 100 µM
- GI50 [10]: 8.34 µM
- TGI [10]: > 100 µM
- GI50 [11]: 22.5 µM
- TGI [11]: > 100 µM
- GI50 [12]: 16.6 µM
- TGI [12]: 78 µM
- GI50 [13]: 6.68 µM
- TGI [13]: > 100 µM
- GI50 [14]: 13.2 µM
- TGI [14]: > 100 µM
- GI50 [15]: 5.24 µM
- TGI [15]: 58.7 µM
- GI50 [16]: 15.8 µM
- TGI [16]: 57.5 µM
- GI50 [17]: 17.7 µM
- TGI [17]: 58.1 µM
- GI50 [18]: 5.17 µM
- TGI [18]: 20.9 µM
- GI50 [19]: 13.4 µM
- TGI [19]: 61.6 µM
- GI50 [20]: 14.4 µM
- TGI [20]: 61 µM
- GI50 [21]: 5.29 µM
- TGI [21]: 33.5 µM
- GI50 [22]: 20.1 µM
- TGI [22]: > 100 µM
- GI50 [23]: 3.38 µM
- TGI [23]: 29.7 µM
- GI50 [24]: 11.6 µM
- TGI [24]: 26.9 µM
- GI50 [25]: 8.89 µM
- TGI [25]: 21.6 µM
- GI50 [26]: 18.8 µM
- TGI [26]: > 100 µM
- GI50 [27]: 5.45 µM
- TGI [27]: > 100 µM
- GI50 [28]: 19.7 µM
- TGI [28]: > 100 µM
- GI50 [29]: 14.2 µM
- TGI [29]: 55.4 µM
- GI50 [30]: 5.9 µM
- TGI [30]: 80.9 µM
- GI50 [31]: 15.7 µM
- TGI [31]: 93.9 µM
- GI50 [32]: 11.5 µM
- TGI [32]: 24.7 µM
- GI50 [33]: 21 µM
- TGI [33]: 83.9 µM
- GI50 [34]: 29.4 µM
- TGI [34]: > 100 µM
- GI50 [35]: 12.7 µM
- TGI [35]: 47.7 µM
- GI50 [36]: 15.3 µM
- TGI [36]: > 100 µM
- GI50 [37]: 3.84 µM
- TGI [37]: > 100 µM
- GI50 [38]: 10.4 µM
- TGI [38]: 74.6 µM
- GI50 [39]: 18.6 µM
- TGI [39]: > 100 µM
- GI50 [40]: 12.8 µM
- TGI [40]: > 100 µM
- GI50 [41]: 26.8 µM
- TGI [41]: > 100 µM
- GI50 [42]: 12.1 µM
- TGI [42]: > 100 µM
- GI50 [43]: 13.7 µM
- TGI [43]: > 100 µM
- GI50 [44]: 15.1 µM
- TGI [44]: > 100 µM
- GI50 [45]: 2.2 µM
- TGI [45]: 23.7 µM
- GI50 [46]: 19.4 µM
- TGI [46]: 85.5 µM
- GI50 [47]: 12.4 µM
- TGI [47]: 45.3 µM
- GI50 [48]: 10.1 µM
- TGI [48]: > 100 µM
- GI50 [49]: 7.37 µM
- TGI [49]: 72.8 µM
- GI50 [50]: 29.3 µM
- TGI [50]: > 100 µM
- GI50 [51]: 2.76 µM
- TGI [51]: > 100 µM
- GI50 [52]: 12.1 µM
- TGI [52]: 53.8 µM
- GI50 [53]: 22.5 µM
- TGI [53]: > 100 µM
- GI50 [54]: 19.7 µM
- TGI [54]: > 100 µM
- GI50 [55]: 9.08 µM
- TGI [55]: 66.1 µM

SMILES: Cc1ccc2nc3c(nc2c1)c1cc(I)ccc1n3CCN(C)C
- GI50 [1]: 4.13 µM
- TGI [1]: 16.8 µM
- GI50 [2]: 5.04 µM
- TGI [2]: 16.8 µM
- GI50 [3]: 10.3 µM
- TGI [3]: 23.1 µM
- GI50 [4]: 5.36 µM
- TGI [4]: 18.5 µM
- GI50 [5]: 7.41 µM
- TGI [5]: 20 µM
- GI50 [6]: 9.48 µM
- TGI [6]: 21.4 µM
- GI50 [7]: 13.8 µM
- TGI [7]: 26.7 µM
- GI50 [8]: 6.07 µM
- TGI [8]: 19.6 µM
- GI50 [9]: 3.05 µM
- TGI [9]: 13.2 µM
- GI50 [10]: 4.09 µM
- TGI [10]: 16.2 µM
- GI50 [11]: 4.24 µM
- TGI [11]: 15.7 µM
- GI50 [12]: 14.2 µM
- TGI [12]: 29.3 µM
- GI50 [13]: 4.06 µM
- TGI [13]: 18.8 µM
- GI50 [14]: 6.19 µM
- TGI [14]: 20.7 µM
- GI50 [15]: 3.16 µM
- TGI [15]: 20.5 µM
- GI50 [16]: 3.14 µM
- TGI [16]: 12.9 µM
- GI50 [17]: 11.1 µM
- TGI [17]: 25.4 µM
- GI50 [18]: 11.7 µM
- TGI [18]: 24 µM
- GI50 [19]: 7.02 µM
- TGI [19]: 24.8 µM
- GI50 [20]: 5.98 µM
- TGI [20]: 23.4 µM
- GI50 [21]: 4.12 µM
- TGI [21]: 17.3 µM
- GI50 [22]: 3.72 µM
- TGI [22]: 15.2 µM
- GI50 [23]: 7.59 µM
- TGI [23]: 25.4 µM
- GI50 [24]: 3.72 µM
- TGI [24]: 14.4 µM
- GI50 [25]: 12.1 µM
- TGI [25]: 25.2 µM
- GI50 [26]: 3.81 µM
- TGI [26]: 15.3 µM
- GI50 [27]: 3.84 µM
- TGI [27]: 17.5 µM
- GI50 [56]: 1.92 µM
- TGI [56]: 15.8 µM
- GI50 [28]: 3.66 µM
- TGI [28]: 14.2 µM
- GI50 [29]: 13.3 µM
- TGI [29]: 30.5 µM
- GI50 [30]: 3.6 µM
- TGI [30]: 14.4 µM
- GI50 [31]: 3.78 µM
- TGI [31]: 17.9 µM
- GI50 [32]: 3.56 µM
- TGI [32]: 16.7 µM
- GI50 [33]: 4.87 µM
- TGI [33]: 17.2 µM
- GI50 [34]: 5.36 µM
- TGI [34]: 19.2 µM
- GI50 [35]: 3.35 µM
- TGI [35]: 13.9 µM
- GI50 [36]: 3.51 µM
- TGI [36]: 14 µM
- GI50 [37]: 7.08 µM
- TGI [37]: 20.9 µM
- GI50 [38]: 12.5 µM
- TGI [38]: 34.3 µM
- GI50 [57]: 4.25 µM
- TGI [57]: 18 µM
- GI50 [39]: 12.6 µM
- TGI [39]: 28.7 µM
- GI50 [40]: 5.63 µM
- TGI [40]: 18.7 µM
- GI50 [41]: 5.54 µM
- TGI [41]: 19.1 µM
- GI50 [42]: 4.87 µM
- TGI [42]: 18.5 µM
- GI50 [43]: 4.66 µM
- TGI [43]: 16 µM
- GI50 [44]: 3.92 µM
- TGI [44]: 15.5 µM
- GI50 [46]: 4.81 µM
- TGI [46]: 20.5 µM
- GI50 [58]: 13.2 µM
- TGI [58]: 26.4 µM
- GI50 [47]: 3.18 µM
- TGI [47]: 14.8 µM
- GI50 [48]: 3.42 µM
- TGI [48]: 13.4 µM
- GI50 [49]: 4.64 µM
- TGI [49]: 18.5 µM
- GI50 [50]: 13.8 µM
- TGI [50]: 27.8 µM
- GI50 [51]: 7.9 µM
- TGI [51]: 24.9 µM
- GI50 [52]: 14.8 µM
- TGI [52]: 28.8 µM
- GI50 [53]: 3.61 µM
- TGI [53]: 15.9 µM
- GI50 [54]: 4.67 µM
- TGI [54]: 18.4 µM
- GI50 [55]: 13.4 µM
- TGI [55]: 27 µM
